Reference: patent publication US10927128B2, “Oxadiazaspiro compounds for the treatment of drug abuse and addiction” (ESTEVE PHARMACEUTICALS, S.A., priority 2015, dated 2021)
Read-outs that look alike come from different tables or passages of the source.

Biological target: human σ1 receptor (Homo sapiens (Human), UniProt Q99720)
Experiment: Human σ1 receptor radioligand assay
Format: binding
Experimental: Human σ1 Receptor Radioligand Assay
To investigate binding properties of test compounds to human σ1 receptor, transfected HEK-293 membranes and [^3H](+)-pentazocine (Perkin Elmer, NET-1056), as the radioligand, were used. The assay was carried out with 7 μg of membrane suspension, 5 nM of [^3H](+)-pentazocine in either absence or presence of either buffer or 10 μM Haloperidol for total and non-specific binding, respectively. Binding buffer contained Tris-HCl 50 mM at pH 8. Plates were incubated at 37° C. for 120 minutes. After the incubation period, the reaction mix was then transferred to Multiscreen HTS, FC plates (Millipore), filtered and plates were washed 3 times with ice-cold 10 mM Tris-HCL (pH7.4). Filters were dried and counted at approximately 40% efficiency in a MicroBeta scintillation counter (Perkin-Elmer) using EcoScint liquid scintillation cocktail

Chain of human σ1 receptor (Q99720 whole entry): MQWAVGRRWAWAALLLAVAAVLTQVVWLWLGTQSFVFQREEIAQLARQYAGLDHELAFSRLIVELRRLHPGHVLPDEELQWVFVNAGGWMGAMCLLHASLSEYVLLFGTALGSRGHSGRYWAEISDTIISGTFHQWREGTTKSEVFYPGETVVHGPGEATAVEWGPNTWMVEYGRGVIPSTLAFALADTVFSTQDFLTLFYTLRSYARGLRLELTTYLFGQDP

| SMILES | Ki | Ki ([3H](+)-pentazocine radioligand, transfected HEK-293 membranes, read-out: Ki-σ1) |
| --- | --- | --- |
| CCN1CC2(CCN(CCC(C)(C)C)CC2)O[C@@H](C)C1=O [Example 52, (S)-9-(3,3-dimethylbutyl)-4-ethyl-2-methyl-1-oxa-4,9-diazaspiro[5.5]undecan-3-one] | 100 to 500 nM |  |
| CCN1CC(C)OC2(CCN(CCc3ccccc3)CC2)C1 (centres unmarked) [Example 112, 4-Ethyl-2-methyl-9-phenethyl-1-oxa-4,9-diazaspiro[5.5]undecane] |  | < 100 nM |
